Converted amounts (≈) assume the structure as drawn. Where a SMILES comes first, the peptide text is derived from it.
Tests used:
[1] = physchem; conditions: water
[2] = test system: rhinovirus
[3] = test system: H1N1 virus
[4] = biological target: H1N1 HA1 protein (Influenza A virus, UniProt C3W5S1)
[5] = test system: H1N1 virus; remark: listed apart in the source
[6] = test system: SARS-CoV
[7] = test system: virus–host endosomal acidification in H1N1-infected MDCK cells; type: cell-based, canine
[8] = test system: rhinovirus; type: binding
[9] = biological target: MERS-CoV S protein (Middle East respiratory syndrome-related coronavirus, UniProt K9N5Q8)
[10] = test system: H1N1 virus; remark: listed apart in the source
[11] = test system: MERS-CoV
[12] = test system: endosomal acidification in MDCK cells; type: cell-based, canine
[13] = test system: A(H7N9) virus
[14] = test system: SARS-CoV-2
[15] = test system: SARS-CoV-2; type: binding
[16] = test system: SARS-CoV-2; remark: listed apart in the source
[17] = test system: parainfluenza virus 3; conditions: 24 h, pH 7.4
[18] = test system: SARS-CoV-2; conditions: 24 h, pH 7.4

Sequence of H1N1 HA1 protein (C3W5S1 18-344 limits assumed): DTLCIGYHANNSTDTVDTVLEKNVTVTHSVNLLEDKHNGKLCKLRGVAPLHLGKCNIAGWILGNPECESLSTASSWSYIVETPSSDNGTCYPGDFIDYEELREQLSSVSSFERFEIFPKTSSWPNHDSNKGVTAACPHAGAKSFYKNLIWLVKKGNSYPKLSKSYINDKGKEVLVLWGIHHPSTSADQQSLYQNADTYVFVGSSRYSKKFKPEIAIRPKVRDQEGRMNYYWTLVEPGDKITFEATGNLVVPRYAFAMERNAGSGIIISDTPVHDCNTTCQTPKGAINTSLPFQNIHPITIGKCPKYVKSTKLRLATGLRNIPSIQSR
Sequence of MERS-CoV S protein (K9N5Q8 18-1353 limits assumed): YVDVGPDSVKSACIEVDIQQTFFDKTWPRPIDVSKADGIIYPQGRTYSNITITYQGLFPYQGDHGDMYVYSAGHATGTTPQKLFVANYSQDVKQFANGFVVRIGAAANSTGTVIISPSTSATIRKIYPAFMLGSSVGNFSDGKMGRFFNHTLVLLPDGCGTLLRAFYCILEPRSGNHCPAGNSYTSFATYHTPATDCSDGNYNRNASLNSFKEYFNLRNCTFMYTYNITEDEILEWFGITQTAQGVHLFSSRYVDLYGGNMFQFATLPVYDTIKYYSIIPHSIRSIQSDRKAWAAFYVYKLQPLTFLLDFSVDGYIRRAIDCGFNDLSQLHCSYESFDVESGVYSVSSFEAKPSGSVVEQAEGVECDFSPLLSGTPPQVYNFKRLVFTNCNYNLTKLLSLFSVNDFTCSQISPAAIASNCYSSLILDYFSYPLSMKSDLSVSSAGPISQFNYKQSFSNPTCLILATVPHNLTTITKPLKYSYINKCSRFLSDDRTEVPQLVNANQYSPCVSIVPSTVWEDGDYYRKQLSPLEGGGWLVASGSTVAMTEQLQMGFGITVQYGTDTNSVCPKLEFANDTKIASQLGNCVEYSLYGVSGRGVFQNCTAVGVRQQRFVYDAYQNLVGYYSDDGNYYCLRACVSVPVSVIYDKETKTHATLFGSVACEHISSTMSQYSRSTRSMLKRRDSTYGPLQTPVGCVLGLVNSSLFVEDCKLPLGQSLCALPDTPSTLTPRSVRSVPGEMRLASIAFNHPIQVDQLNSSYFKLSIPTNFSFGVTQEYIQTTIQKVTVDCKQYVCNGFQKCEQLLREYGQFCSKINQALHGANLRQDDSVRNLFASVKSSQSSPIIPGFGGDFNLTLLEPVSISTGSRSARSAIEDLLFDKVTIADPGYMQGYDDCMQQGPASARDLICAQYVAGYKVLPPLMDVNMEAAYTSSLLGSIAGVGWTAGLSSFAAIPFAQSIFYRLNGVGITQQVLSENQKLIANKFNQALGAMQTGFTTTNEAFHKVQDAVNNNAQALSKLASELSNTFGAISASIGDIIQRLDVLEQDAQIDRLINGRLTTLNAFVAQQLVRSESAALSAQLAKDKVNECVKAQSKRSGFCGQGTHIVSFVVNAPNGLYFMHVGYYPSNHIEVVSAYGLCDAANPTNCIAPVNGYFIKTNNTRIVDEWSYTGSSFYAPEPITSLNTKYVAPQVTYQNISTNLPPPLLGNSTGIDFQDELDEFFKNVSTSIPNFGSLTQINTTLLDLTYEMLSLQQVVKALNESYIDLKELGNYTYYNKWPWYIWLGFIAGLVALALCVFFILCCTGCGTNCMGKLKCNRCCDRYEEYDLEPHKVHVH

| SMILES | solubility [1] [µg/mL] | inhibition of viral replication, rhinovirus [2] [fold] | antiviral activity when cells were pretreated before viral infection [3] | binding to H1N1 HA1 protein [4] | effect on viral attachment [5] | inhibition of viral replication, SARS-CoV [6] | inhibition of virus–host endosomal acidification in infected live cells [7] | binding to rhinovirus [8] | binding to MERS-CoV S protein [9] | viral replication after 10,000-fold dilution of virus-peptide mixture [10] | inhibition of viral replication, MERS-CoV [11] | inhibition of endosomal acidification in live cells [12] | inhibition of viral replication, A(H7N9) virus [13] [fold] | inhibition of viral replication when added after SARS-CoV-2 infection [14] | binding to SARS-CoV-2 [15] | inhibition of viral replication, SARS-CoV-2 [16] | IC50 against parainfluenza virus 3 [17] [µg/mL] | IC50 against SARS-CoV-2 [18] [µg/mL] |
| --- | --- | --- | --- | --- | --- | --- | --- | --- | --- | --- | --- | --- | --- | --- | --- | --- | --- | --- |
| CC[C@H](C)[C@H](NC(=O)[C@H](C)NC(=O)CNC(=O)[C@@H](N)CC(N)=O)C(=O)N[C@@H](CS)C(=O)N[C@@H](Cc1c[nH]c2ccccc12)C(=O)NCC(=O)N1CCC[C@H]1C(=O)N[C@@H](CS)C(=O)N1CCC[C@H]1C(=O)N[C@H](C(=O)N[C@@H](C)C(=O)N[C@@H](Cc1ccccc1)C(=O)N[C@@H](CCCNC(=N)N)C(=O)N[C@@H](CCC(N)=O)C(=O)N[C@H](C(=O)NCC(=O)N[C@@H](CC(N)=O)C(=O)N[C@@H](CS)C(=O)NCC(=O)N[C@@H](CCCNC(=N)N)C(=O)N[C@@H](Cc1ccccc1)C(=O)N[C@@H](CCCNC(=N)N)C(=O)N[C@H](C(=O)N[C@@H](CCCNC(=N)N)C(=O)N[C@@H](CS)C(=O)N[C@@H](CS)C(=O)N[C@@H](CCCNC(=N)N)C(=O)N[C@H](C(=O)N[C@@H](CCCNC(=N)N)C(=O)O)[C@@H](C)CC)C(C)C)[C@@H](C)CC)[C@@H](C)O [P9R] (H-NGAICWGPCPTAFRQIGNCGRFRVRCCRIR-OH) | > 5000 | > 20 | did not show antiviral activity | could also bind | did not affect viral attachment | more than 100 fold | could efficiently inhibit | could also bind | could also bind | could significantly inhibit viral replication | more than 100 fold | could more significantly inhibit endosomal acidification in live cells than that of P9 | > 20 | could also significantly inhibit viral replication | could efficiently bind | more than 100 fold | > 25.0 | 0.9 (≈ 0.264 µM) |
| CC[C@H](C)[C@H](NC(=O)[C@H](C)NC(=O)CNC(=O)[C@@H](N)CC(N)=O)C(=O)N[C@@H](CS)C(=O)N[C@@H](Cc1c[nH]c2ccccc12)C(=O)NCC(=O)N1CCC[C@H]1C(=O)N[C@@H](CS)C(=O)N1CCC[C@H]1C(=O)N[C@H](C(=O)N[C@@H](C)C(=O)N[C@@H](Cc1ccccc1)C(=O)N[C@@H](CCCNC(=N)N)C(=O)N[C@@H](CCC(N)=O)C(=O)N[C@H](C(=O)NCC(=O)N[C@@H](CC(N)=O)C(=O)N[C@@H](CS)C(=O)NCC(=O)N[C@@H](Cc1c[nH]cn1)C(=O)N[C@@H](Cc1ccccc1)C(=O)N[C@@H](CCCCN)C(=O)N[C@H](C(=O)N[C@@H](CCCNC(=N)N)C(=O)N[C@@H](CS)C(=O)N[C@@H](CS)C(=O)N[C@@H](CCCCN)C(=O)N[C@H](C(=O)N[C@@H](CCCNC(=N)N)C(=O)O)[C@@H](C)CC)C(C)C)[C@@H](C)CC)[C@@H](C)O [P9, reference compound] (H-NGAICWGPCPTAFRQIGNCGHFKVRCCKIR-OH) | – | – | – | – | – | – | – | – | – | – | – | – | – | – | – | – | > 25.0 | 2.4 (≈ 0.719 µM) |
| CO/C1=C\C(C)=C\[C@@H](C)[C@@H](O)[C@@H](C)C/C(C)=C/C=C/[C@H](OC)[C@@H]([C@@H](C)[C@@H](O)[C@H](C)[C@@]2(O)C[C@@H](O)[C@H](C)[C@@H](C(C)C)O2)OC1=O [bafilomycin A1, reference compound] | – | – | – | – | – | – | could efficiently inhibit | – | – | – | – | – | – | – | – | – | – | – |

Source: paper PMC7447754 (Nature Communications, 2020)
